Active and inactive are the calls of the source.
How the values were obtained:
[1] = Luminescence-based dose response cell-based high throughput screening assay for cytotoxic compounds using the IEC-6 intestinal epithelial cell line. [Related pubchem assays: 1858 (Summary AID.), 1825 (Counterscreen.), 1907 (Confirmation screen.)]; format: functional
[2] = system: INS1; assay: INS-1E survival protection against cytokine death – cell-based, luminescence, retest, dose response (AID 449756); format: functional; conditions: Rattus norvegicus;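 note: cell death triggered by IL-1 beta plus TNF-alpha plus IFN-gamma mixture; protective hits raise ATP signal compared with cytokine alone wells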
[3] = target: Photoreceptor-specific nuclear receptor (Homo sapiens, UniProt Q9Y5X4); format: functional, cell-based;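 note: CHO-S cells with Gal4-NCOR and VP16-NR2E3 two-hybrid luciferase reporter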
Photoreceptor-specific nuclear receptor, sequence (Q9Y5X4 whole entry, the tested form may be a part): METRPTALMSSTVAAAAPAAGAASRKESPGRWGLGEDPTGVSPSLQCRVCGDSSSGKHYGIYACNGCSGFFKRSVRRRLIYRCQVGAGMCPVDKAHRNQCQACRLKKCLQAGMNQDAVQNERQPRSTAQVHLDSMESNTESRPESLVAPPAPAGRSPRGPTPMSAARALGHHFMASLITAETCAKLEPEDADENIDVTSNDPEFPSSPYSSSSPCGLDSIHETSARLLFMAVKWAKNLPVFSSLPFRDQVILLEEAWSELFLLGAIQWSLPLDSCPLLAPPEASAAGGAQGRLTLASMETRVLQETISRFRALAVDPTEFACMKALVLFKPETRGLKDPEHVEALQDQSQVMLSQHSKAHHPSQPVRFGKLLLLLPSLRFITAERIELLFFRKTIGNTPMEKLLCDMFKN

[4] = viability loss in HeLa cells – cytotoxicity control for MgcRacGAP inhibitor project, dose response (AID 624300); format: functional
[5] = target: T1, Sentrin-specific protease 6 (Homo sapiens, UniProt Q9GZR1); format: functional;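 note: Luminescence-based dose-response confirmatory assay of SENP6 inhibition, following up an ultra-high-throughput screen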
T1 sequence (Q9GZR1 whole entry): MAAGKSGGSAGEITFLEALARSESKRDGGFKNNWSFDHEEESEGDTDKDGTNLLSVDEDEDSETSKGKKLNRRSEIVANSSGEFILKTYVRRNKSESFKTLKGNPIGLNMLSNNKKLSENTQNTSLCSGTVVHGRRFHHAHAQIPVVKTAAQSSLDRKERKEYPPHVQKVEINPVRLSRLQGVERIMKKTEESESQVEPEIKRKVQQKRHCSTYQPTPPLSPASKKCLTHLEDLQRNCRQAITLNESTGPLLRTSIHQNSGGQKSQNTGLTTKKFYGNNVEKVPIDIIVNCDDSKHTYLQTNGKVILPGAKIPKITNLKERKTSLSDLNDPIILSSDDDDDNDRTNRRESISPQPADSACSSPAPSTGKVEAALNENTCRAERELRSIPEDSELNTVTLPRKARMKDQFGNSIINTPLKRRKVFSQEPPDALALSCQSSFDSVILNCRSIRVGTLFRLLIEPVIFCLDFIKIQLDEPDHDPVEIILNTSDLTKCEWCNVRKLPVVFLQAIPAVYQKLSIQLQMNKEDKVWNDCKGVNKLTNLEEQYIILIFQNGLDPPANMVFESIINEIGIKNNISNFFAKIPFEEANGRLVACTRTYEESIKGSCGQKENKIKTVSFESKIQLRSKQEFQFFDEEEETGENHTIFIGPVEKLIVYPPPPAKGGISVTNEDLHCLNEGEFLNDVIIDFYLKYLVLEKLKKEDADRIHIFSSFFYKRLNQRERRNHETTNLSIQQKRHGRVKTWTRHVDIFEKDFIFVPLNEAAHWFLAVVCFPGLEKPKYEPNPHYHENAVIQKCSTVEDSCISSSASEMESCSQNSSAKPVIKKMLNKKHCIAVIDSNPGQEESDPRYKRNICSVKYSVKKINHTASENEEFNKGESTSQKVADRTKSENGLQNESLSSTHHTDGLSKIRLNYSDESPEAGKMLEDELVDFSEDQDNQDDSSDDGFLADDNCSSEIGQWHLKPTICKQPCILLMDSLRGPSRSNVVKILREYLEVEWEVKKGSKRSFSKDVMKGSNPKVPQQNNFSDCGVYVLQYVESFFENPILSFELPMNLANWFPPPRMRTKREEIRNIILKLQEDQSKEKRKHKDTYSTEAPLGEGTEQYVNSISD

Row | Structure (SMILES) | IC50 [1] | AC50 [2] | IC50 [3] | CC50 [4] | IC50 [5]
1 | O=C(Nc1ccccc1Cl)/C(Cl)=C(\Cl)[S+]([O-])c1ccccc1 (stereo not given) | 2520 nM (active) | 2070 nM (active) | 2920 nM (active) | 28900 nM (active) | 
2 | O=C(NC1(O)C(=O)c2ccccc2C1=O)c1ccccc1 |  |  |  |  | 2390 nM (active)

— ChEMBL document CHEMBL1201862, “PubChem BioAssay data set” (2004)
